Data set [1] is described as follows: Solubility of the compound in 30% EtOH/PBS measured after 48 hrs by HPLC analysis. In kind it is physicochemical.
Data set [2] in a line: Inhibition of RyR1 R2163C mutant (unknown origin) expressed in HEK293 cells measured every 10s for 300s by R-CEPIA1er based fluorescence analysis. In kind it is cell-based, Homo sapiens.
Data set [3] is described as follows: Solubility of the compound in saline measured after 48 hrs by HPLC analysis. In kind it is physicochemical. Particulars: buffer.

Structures are written as SMILES. Converted amounts (≈) assume the structure as drawn.

By solubility is commonly meant the dissolved amount per volume that the medium holds. One may read the EC50 as the concentration giving half of the maximal effect. Lower therefore signals higher potency in that assay. Take `CCCCCCCCn1cc(C(=O)O)c(=O)c2cc3c(cc21)OCO3`: the solubility at 48 h in data set [1] was 4.7 µg/mL (≈ 13.6 µM). Further, it took 12 nM to reach a half-maximal effect in data set [2] (EC50).

`CCCCCCCCn1cc(C(=O)[O-])c(=O)c2cnc(OC)cc21.[Na+]` registered a solubility in data set [3] of 27 µg/mL.

In turn, `CCCCCCCn1cc(C(=O)[O-])c(=O)c2cc3c(cc21)OCO3.[Na+]` had a solubility in data set [3] of 3.9 µg/mL.

In data set [1], `CCCCCCCCn1cc(C(=O)O)c(=O)c2cnc(OC)cc21` gave a solubility at 48 h of 414 µg/mL (≈ 1250 µM). Moreover, a half-maximal response in data set [2] (EC50) required 68 nM.

In the case of `CCCCCCCn1cc(C(=O)O)c(=O)c2cc3c(cc21)OCO3`, the solubility at 48 h in data set [1] is 54 µg/mL (≈ 163 µM). In data set [2], the EC50 came out at 11 nM.

With `CCCCCCCCn1cc(C(=O)O)c(=O)c2c(OC)nccc21`, in data set [2], it took 1700 nM to reach a half-maximal effect (EC50).

For `CCCCCCCn1cc(C(=O)O)c(=O)c2cnc(OC)cc21`, a half-maximal effect in data set [2] (EC50) was put at 525 nM. This EC50 is about 3.2-fold lower than that of the molecule before.

In turn, `CCCCCCCCn1cc(C(=O)[O-])c(=O)c2cc3c(cc21)OCO3.[Na+]` came in with a solubility in data set [3] of 0.84 µg/mL.

Turning to `CCCCCCn1cc(C(=O)O)c(=O)c2cc3c(cc21)OCO3`, the concentration giving a half-maximal response (EC50) in data set [2] came out at 70 nM.

Values taken from ChEMBL document CHEMBL5096212, “Development of a water-soluble ryanodine receptor 1 inhibitor” (Bioorg Med Chem, 2022).
